Results taken from ChEMBL document CHEMBL2029201, “Synthesis of chalcone derivatives as potential anti-diabetic agents” (2012).

Tested on: 3T3-L1
Assay: Antidiabetic activity in mouse 3T3L1 cells assessed as […] from cell culture medium using 450 mg/dL D-glucose at 30 ug/mL after 24 hrs (reference value: 310 +/- 4 mg/dl)
Assay type: functional

With `COc1cccc(/C=C/C(=O)c2ccccc2I)c1` the Activity was 210 mg/dL.
`O=C(/C=C/c1ccccc1)c1cc(Cl)ccc1O` showed an Activity of 236 mg/dL.
In the case of `O=C(/C=C/c1ccccc1)c1ccccc1I`, the Activity was 223 mg/dL.
With `O=C(/C=C/c1cccc(OCc2ccccc2)c1)c1cccc(I)c1` the Activity was 238 mg/dL.
Work on `COc1ccc(/C=C/C(=O)c2ccccc2I)cc1` yielded an Activity of 210 mg/dL.
For `COc1ccc(/C=C/C(=O)c2cccc(Cl)c2)cc1`, the Activity was 287 mg/dL.
In the case of `COc1cccc(/C=C/C(=O)c2cccc(Cl)c2)c1`, the Activity was 255 mg/dL.
`COc1ccc(/C=C/C(=O)c2ccccc2Br)cc1` showed an Activity of 230 mg/dL.
In the case of `COc1ccc(/C=C/C(=O)c2ccccc2Cl)cc1`, the Activity was 234 mg/dL.
